Our source for the IC50 values is patent US20120220567A1, “BENZO-FUSED OXAZEPINE COMPOUNDS AS STEAROYL-COENZYME A DELTA-9 DESATURASE INHIBITORS” (priority 2009, published 2012).

Structures are written as SMILES.

This assay concerns the target T1, SCD-1 (Homo sapiens, UniProt O00767).
T1 construct: 50 μg of protein from a HepG2 cell P2 pellet; endogenous in cells; host or cells: HepG2 cells (P2 pellet)
T1 sequence (O00767 1-359): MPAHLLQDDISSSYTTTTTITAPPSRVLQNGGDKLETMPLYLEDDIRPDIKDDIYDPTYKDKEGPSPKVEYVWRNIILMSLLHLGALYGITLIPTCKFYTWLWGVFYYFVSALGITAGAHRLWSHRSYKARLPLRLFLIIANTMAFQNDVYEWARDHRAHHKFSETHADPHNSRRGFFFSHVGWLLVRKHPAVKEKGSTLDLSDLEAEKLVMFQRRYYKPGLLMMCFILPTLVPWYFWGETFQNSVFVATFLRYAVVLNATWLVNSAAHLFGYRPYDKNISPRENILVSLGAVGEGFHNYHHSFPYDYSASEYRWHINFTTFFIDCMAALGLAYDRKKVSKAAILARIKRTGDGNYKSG
The experiment in a line: Stearoyl-CoA desaturase assay (HepG2 cell P2 pellet). The assay is classed as biochemical. Particulars: Table 3, compounds of formula (Ic); protein from HepG2 cell P2 pellet, 20 μM stearoyl-CoA, 15 min at 25° C.; read-out: Ave IC50.

As usually defined, the IC50 is the point on the concentration scale where inhibition reaches its midpoint. In the case of `CC(C)CNC(=O)c1ccc(N2CCC3(CC2)CCN(Cc2cccc(C(F)(F)F)c2)c2ccccc2O3)nn1` [Compound 158], the IC50 was 0.05 to 0.499 µM.
Regarding `CC(C)(C)CCNC(=O)c1ccc(N2CCC3(CC2)CCN(Cc2cccc(C(F)(F)F)c2)c2ccccc2O3)nn1` [Compound 159], the IC50 fell in the range of 0.5 to 10 µM.
For `CC(C)CCNC(=O)c1ccc(N2CCC3(CC2)CCN(Cc2cccc(C(F)(F)F)c2)c2ccccc2O3)nn1` [Compound 160], the IC50 was 0.05 to 0.499 µM.
Regarding `O=C(NCCCO)c1ccc(N2CCC3(CC2)CCN(Cc2cccc(C(F)(F)F)c2)c2ccccc2O3)nn1` [Compound 161], the IC50 lay in the range of 0.05 to 0.499 µM.
Consider `O=C(NCCc1c[nH]cn1)c1ccc(N2CCC3(CC2)CCN(Cc2cccc(C(F)(F)F)c2)c2ccccc2O3)nn1` [Compound 162], for which the IC50 was in the range of 0.0005 to 0.049 µM.
`O=C(NCCc1cccnc1)c1ccc(N2CCC3(CC2)CCN(Cc2cccc(C(F)(F)F)c2)c2ccccc2O3)nn1` [Compound 163]: the 50% inhibitory concentration (IC50) was in the range of 0.0005 to 0.049 µM.
Turning to `NC(=O)c1ccc(N2CCC3(CC2)CCN(Cc2cccc(C(F)(F)F)c2)c2ccccc2O3)nn1` [Compound 164], the 50% inhibitory concentration (IC50) fell in the range of 0.0005 to 0.049 µM.
On to `O=C(NCCc1ccncc1)c1ccc(N2CCC3(CC2)CCN(Cc2cccc(C(F)(F)F)c2)c2ccccc2O3)nn1` [Compound 165], for which the half-inhibitory concentration (IC50) fell in the range of 0.0005 to 0.049 µM.
The figure for `COC(=O)CCNC(=O)c1ccc(N2CCC3(CC2)CCN(Cc2cccc(C(F)(F)F)c2)c2ccccc2O3)nn1` [Compound 166] is 0.0005 to 0.049 µM.
For the compound `CCNC(=O)c1ccc(N2CCC3(CC2)CCN(Cc2cccc(C(F)(F)F)c2)c2ccccc2O3)nn1` [Compound 167], the concentration for half-maximal inhibition (IC50) was in the range of 0.05 to 0.499 µM.
In the case of `O=C(NCC1CC1)c1ccc(N2CCC3(CC2)CCN(Cc2cccc(C(F)(F)F)c2)c2ccccc2O3)nn1` [Compound 168], the IC50 is 0.05 to 0.499 µM.
On to `O=C(NCCC1CC1)c1ccc(N2CCC3(CC2)CCN(Cc2cccc(C(F)(F)F)c2)c2ccccc2O3)nc1` [Compound 169], for which the IC50 fell in the range of 0.0005 to 0.049 µM.
In the case of `COC(=O)c1ccc(N2CCC3(CC2)CCN(Cc2cccc(C(F)(F)F)c2)c2ccccc2O3)nn1` [Compound 170, methyl 6-(5-(3-(trifluoromethyl)benzyl)-4,5-dihydro-3H-spiro-[benzo[b][1,4]oxazepine-2,4′-piperidine]-1′-yl)pyridazine-3-carboxylate], the IC50 is 0.0005 to 0.049 µM.
Regarding `O=C(NCCC1CC1)c1ccc(N2CCC3(CC2)CCN(Cc2cccc(C(F)(F)F)c2)c2ccccc2O3)cc1` [Compound 171], the half-inhibitory concentration (IC50) was in the range of 0.5 to 10 µM.
With `O=C(O)c1ccc(N2CCC3(CC2)CCN(Cc2cccc(C(F)(F)F)c2)c2ccccc2O3)nn1` [Compound 172, 6-(5-(3-(trifluoromethyl)benzyl)-4,5-dihydro-3H-spiro[benzo-[b][1,4]oxazepine-2,4′-piperidine]-1′-yl)pyridazine-3-carboxylic Acid] the figure was 0.5 to 10 µM; with `COC(=O)CCNC(=O)c1ccc(N2CCC3(CC2)CCN(Cc2cccc(C(F)(F)F)c2)c2cccc(F)c2O3)nn1` [Compound 173], 0.0005 to 0.049 µM.
Take `O=C(NCCc1ccncc1)c1ccc(N2CCC3(CC2)CCN(Cc2cccc(C(F)(F)F)c2)c2cccc(F)c2O3)nn1` [Compound 174]: the IC50 lay in the range of 0.0005 to 0.049 µM.
As to `O=C(NCCC1CC1)c1ccc(N2CCC3(CC2)CCN(Cc2cccc(C(F)(F)F)c2)c2cccc(F)c2O3)nn1` [Compound 175], the IC50 was 0.0005 to 0.049 µM.
With `CCc1ccc(CN2CCC3(CCN(c4ccc(C(=O)NCCC5CC5)nn4)CC3)Oc3ccccc32)cc1` [Compound 176] the figure was 0.0005 to 0.049 µM.
Consider `CCc1ccc(CN2CCC3(CCN(c4ccc(C(=O)NCCC5CC5)cn4)CC3)Oc3ccccc32)cc1` [Compound 177], for which the IC50 lay within 0.05 to 0.499 µM.
For the compound `CC(C)Oc1ccc(CN2CCC3(CCN(c4ccc(C(=O)NCCC5CC5)nn4)CC3)Oc3ccccc32)cc1` [Compound 178], the IC50 lay in the range of 0.0005 to 0.049 µM.
`CC(C)Oc1ccc(CN2CCC3(CCN(c4ccc(C(N)=O)nn4)CC3)Oc3ccccc32)cc1` [Compound 179]: the IC50 fell in the range of 0.0005 to 0.049 µM.
Regarding `O=C(NCCC1CC1)c1ccc(N2CCC3(CC2)CCN(Cc2cc4ccccc4o2)c2ccccc2O3)nn1` [Compound 180], the 50% inhibitory concentration (IC50) lay in the range of 0.0005 to 0.049 µM.
With `CC(C)c1ccc(CN2CCC3(CCN(c4ccc(C(=O)NCCC5CC5)nn4)CC3)Oc3ccccc32)cc1` [Compound 181] the figure was 0.0005 to 0.049 µM.
`CC(C)c1ccc(CN2CCC3(CCN(c4ccc(C(N)=O)nn4)CC3)Oc3ccccc32)cc1` [Compound 182]: the IC50 is 0.0005 to 0.049 µM.
Consider `O=C(NCCC1CC1)c1ccc(N2CCC3(CC2)CCN(Cc2ccc(Oc4ccccc4)cc2)c2ccccc2O3)nn1` [Compound 183], for which the half-inhibitory concentration (IC50) fell in the range of 0.0005 to 0.049 µM.
Take `NC(=O)c1ccc(N2CCC3(CC2)CCN(Cc2ccc(Oc4ccccc4)cc2)c2ccccc2O3)nn1` [Compound 184]: the IC50 lay in the range of 0.0005 to 0.049 µM.
